Measured values taken from patent publication US20090312288A1 (TAKEDA PHARMACEUTICAL COMPANY LIMITED, priority 2008, published 2009).

Target: Aurora B/INCENP (Homo sapiens, UniProt Q96GD4)
Test: Determination of inhibition of AIK: Aurora B/INCENP direct fluorescence polarization (IMAP) assay
Type: biochemical
Conditions: 10 uM ATP, 0.8 nM Aurora B/INCENP; values given as bins; read-out: IC50 of Exemplified Compounds Against AIK B
Method: Detection of the reaction product is performed by addition of Progressive IMAP binding reagent (Molecular Devices). Reaction product may be determined quantitatively by FP using an Analyst HT plate reader (Molecular Devices) with an excitation wavelength at 485 nm and emission at 530 nm and using a Fluorescein 505 dichroic mirror.
The assay reaction may be initiated as follows: 2 ul of (3×) 300 nM Fl-Peptide/30 uM ATP was added to each well of the plate, followed by the addition of 2 ul of (3×) inhibitor (2 fold serial dilutions for 11 data points for each inhibitor) containing 15% DMSO. Two microliters of (3×) 2.4 nM AuroraB/INCENP solution may be added to initiate the reaction (final enzyme concentration was 0.8 nM for Aurora B/INCENP). The reaction mixture may then be incubated at room temperature for 45 min, and quenched and developed by addition of 20 ul of 1 to 400 diluted Progressive IMAP binding reagent in 1× proprietary Progressive IMAP binding buffer A. Fluorescence polarization readings of the resulting reaction mixtures may be measured after a 60-minute incubation at room temperature.
IC50 values may be calculated by non-linear curve fitting of the compound concentrations and fluorescent polarization values to the standard IC50 equation.

Sequence of Aurora B/INCENP (Q96GD4 whole entry): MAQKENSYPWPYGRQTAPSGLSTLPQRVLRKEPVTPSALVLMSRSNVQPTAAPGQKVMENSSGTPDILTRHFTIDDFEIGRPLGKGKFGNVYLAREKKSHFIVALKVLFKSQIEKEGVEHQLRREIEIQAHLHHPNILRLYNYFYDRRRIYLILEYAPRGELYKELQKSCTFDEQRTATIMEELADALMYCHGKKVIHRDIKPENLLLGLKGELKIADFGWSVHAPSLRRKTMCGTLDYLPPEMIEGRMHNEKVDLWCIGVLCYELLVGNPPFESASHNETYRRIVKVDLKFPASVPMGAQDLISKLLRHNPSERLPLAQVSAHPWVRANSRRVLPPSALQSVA
Sequence of Aurora B/INCENP (Q9NQS7 whole entry partner): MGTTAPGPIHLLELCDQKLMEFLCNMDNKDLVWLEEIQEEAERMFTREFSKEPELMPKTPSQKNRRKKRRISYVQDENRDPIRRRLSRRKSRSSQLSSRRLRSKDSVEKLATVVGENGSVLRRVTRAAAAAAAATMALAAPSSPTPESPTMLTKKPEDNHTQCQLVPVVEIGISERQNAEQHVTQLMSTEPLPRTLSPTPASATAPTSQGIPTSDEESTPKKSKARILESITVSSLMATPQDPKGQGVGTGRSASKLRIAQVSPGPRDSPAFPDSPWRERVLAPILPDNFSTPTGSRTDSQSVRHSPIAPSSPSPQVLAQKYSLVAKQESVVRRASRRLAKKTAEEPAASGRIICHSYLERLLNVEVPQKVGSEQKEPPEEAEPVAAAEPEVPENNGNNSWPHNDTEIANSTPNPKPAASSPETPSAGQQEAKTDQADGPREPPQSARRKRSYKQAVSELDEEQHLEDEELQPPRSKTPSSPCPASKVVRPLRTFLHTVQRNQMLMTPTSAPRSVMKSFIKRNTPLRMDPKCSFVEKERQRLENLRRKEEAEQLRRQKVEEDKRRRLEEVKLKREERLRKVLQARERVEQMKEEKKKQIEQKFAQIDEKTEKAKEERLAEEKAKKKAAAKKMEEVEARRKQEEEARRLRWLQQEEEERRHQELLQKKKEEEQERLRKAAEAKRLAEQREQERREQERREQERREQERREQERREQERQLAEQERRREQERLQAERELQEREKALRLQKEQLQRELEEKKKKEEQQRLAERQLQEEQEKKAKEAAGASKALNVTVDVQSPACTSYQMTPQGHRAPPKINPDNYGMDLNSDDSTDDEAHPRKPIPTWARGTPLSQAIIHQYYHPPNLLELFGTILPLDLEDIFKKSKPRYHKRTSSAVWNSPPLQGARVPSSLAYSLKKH

Row | Compound | IC50 [nM]
1 | CCS(=O)(=O)c1cccc(-c2cnc(Oc3ccccc3)c3[nH]c4ncc(C)cc4c23)c1 [Compound 59, 5-(3-Ethanesulfonyl-phenyl)-3-methyl-8-phenoxy-9H-dipyrido[2,3-b;4′,3′-d]pyrrole] | 5.6 to 8.5
2 | CCS(=O)(=O)c1cccc(-c2cnc(OCc3cncs3)c3[nH]c4ncc(C)cc4c23)c1 [Compound 60, 5-(3-Ethanesulfonyl-phenyl)-3-methyl-8-(thiazol-5-ylmethoxy)-9H-dipyrido[2,3-b;4′,3′-d]pyrrole] | 4 to 5.5
3 | CCN1CCC(COc2ncc(-c3cccc(S(=O)(=O)CC)c3)c3c2[nH]c2ncc(C)cc23)CC1 [Compound 61, 5-(3-Ethanesulfonyl-phenyl)-8-(1-ethyl-piperidin-4-ylmethoxy)-3-methyl-9H-dipyrido[2,3-b;4′,3′-d]pyrrole] | 5.6 to 8.5
4 | CCS(=O)(=O)c1cccc(-c2cnc(OC[C@H](C)O)c3[nH]c4ncc(C)cc4c23)c1 [Compound 62, (S)-1-[5-(3-Ethanesulfonyl-phenyl)-3-methyl-9H-dipyrido[2,3-b;4′,3′-d]pyrrol-8-yloxy]-propan-2-ol] | 4 to 5.5
5 | CCS(=O)(=O)c1cccc(-c2cnc(OC[C@@H](C)O)c3[nH]c4ncc(C)cc4c23)c1 [Compound 63, (R)-1-[5-(3-Ethanesulfonyl-phenyl)-3-methyl-9H-dipyrido[2,3-b;4′,3′-d]pyrrol-8-yloxy]-propan-2-ol] | 4 to 5.5
6 | CCS(=O)(=O)c1cccc(-c2cnc(OCCOC(=O)[C@@H](N)C(C)C)c3[nH]c4ncc(C)cc4c23)c1 [Compound 64, L-Valine-2-[5-(3-ethanesulfonyl-phenyl)-3-methyl-9H-dipyrido[2,3-b;4′,3′-d]pyrrol-8-yloxy]-ethyl ester] | 5.6 to 8.5
7 | CCS(=O)(=O)c1cccc(-c2cnc(OC[C@@H](C)OC(=O)[C@H](C)N)c3[nH]c4ncc(C)cc4c23)c1 [Compound 65, L-Alanine-(R)-2-[5-(3-ethanesulfonyl-phenyl)-3-methyl-9H-dipyrido[2,3-b;4′,3′-d]pyrrol-8-yloxy]-1-methyl-ethyl ester] | 8.6 to 13
8 | CCS(=O)(=O)c1cccc(-c2cnc(OCC3CCN(C)CC3)c3[nH]c4ncc(Cl)cc4c23)c1 [Compound 72, 3-Chloro-5-(3-ethanesulfonyl-phenyl)-8-(1-methyl-piperidin-4-ylmethoxy)-9H-dipyrido[2,3-b;4′,3′-d]pyrrole] | < 4
9 | CCS(=O)(=O)c1cccc(-c2cnc(OC[C@@H](C)O)c3[nH]c4ncc(Cl)cc4c23)c1 [Compound 73, (R)-1-[3-Chloro-5-(3-ethanesulfonyl-phenyl)-9H-dipyrido[2,3-b;4′,3′-d]pyrrol-8-yloxy]-propan-2-ol] | < 4
10 | CCS(=O)(=O)c1cccc(-c2cnc(NC)c3[nH]c4ncc(C)cc4c23)c1 [Compound 74, 2-[5-(3-Ethanesulfonyl-phenyl)-3-methyl-9H-dipyrido[2,3-b;4′,3′-d]pyrrol-8-yl]methyl amine] | < 4
11 | CCS(=O)(=O)c1cccc(-c2cnc(SC)c3[nH]c4ncc(C)cc4c23)c1 [Compound 75] | < 4
12 | CCSc1ncc(-c2cccc(S(=O)(=O)CC)c2)c2c1[nH]c1ncc(C)cc12 [Compound 76] | 5.6 to 8.5
13 | CCSc1ncc(-c2cccc(NC(=O)C3CC3)c2)c2c1[nH]c1ncc(C)cc12 [Compound 79] | > 13
14 | CCS(=O)(=O)c1cccc(-c2cc(C(=O)NC3CCN(C)CC3)c(C)c3[nH]c4ncc(C)cc4c23)c1 [Compound 88, 5-(3-(ethylsulfonyl)phenyl)-3,8-dimethyl-N-(1-methylpiperidin-4-yl)-9H-pyrido[2,3-b]indole-7-carboxamide] | 8.6 to 13
15 | CCS(=O)(=O)c1cccc(-c2cc(C(=O)NCCNC)c(C)c3[nH]c4ncc(C)cc4c23)c1 [Compound 89, N-(2-(methylamino)ethyl)-5-(3-(ethylsulfonyl)phenyl)-3,8-dimethyl-9H-pyrido[2,3-b]indole-7-carboxamide] | 8.6 to 13
16 | CCS(=O)(=O)c1cccc(-c2cc(C(=O)NCCOC)c(C)c3[nH]c4ncc(C)cc4c23)c1 [Compound 90, N-(2-(methoxy)ethyl)-5-(3-(ethylsulfonyl)phenyl)-3,8-dimethyl-9H-pyrido[2,3-b]indole-7-carboxamide] | 5.6 to 8.5
17 | CCS(=O)(=O)c1cccc(-c2cc(C(=O)N(C)CCN(C)C)c(C)c3[nH]c4ncc(C)cc4c23)c1 [Compound 91, N-(2-(dimethylamino)ethyl)-N-methyl-5-(3-(ethylsulfonyl)phenyl)-3,8-dimethyl-9H-pyrido[2,3-b]indole-7-carboxamide] | > 13
18 | CCS(=O)(=O)c1cccc(-c2cc(C(=O)N(C)C)c(C)c3[nH]c4ncc(C)cc4c23)c1 [Compound 92, N,N-dimethyl-5-(3-(ethylsulfonyl)phenyl)-3,8-dimethyl-9H-pyrido[2,3-b]indole-7-methylcarboxamide] | 5.6 to 8.5
19 | CCS(=O)(=O)c1cccc(-c2cc(C(=O)N3CCN(C)CC3)c(C)c3[nH]c4ncc(C)cc4c23)c1 [Compound 93] | > 13
20 | CCS(=O)(=O)c1cccc(-c2cc(C(=O)NCCN3CCNCC3)c(C)c3[nH]c4ncc(C)cc4c23)c1 [Compound 94] | > 13
21 | CCS(=O)(=O)c1cccc(-c2cc(C(=O)NCCCN3CCN(C)CC3)c(C)c3[nH]c4ncc(C)cc4c23)c1 [Compound 95, 5-(3-(ethylsulfonyl)phenyl)-3,8-dimethyl-N-(3-(4-methylpiperazin-1-yl)propyl)-9H-pyrido[2,3-b]indole-7-carboxamide] | > 13
22 | CCS(=O)(=O)c1cccc(-c2cc(C(=O)N3CCOCC3)c(C)c3[nH]c4ncc(C)cc4c23)c1 [Compound 96] | 8.6 to 13
23 | CCS(=O)(=O)c1cccc(-c2cc(C(=O)N3CCC3)c(C)c3[nH]c4ncc(C)cc4c23)c1 [Compound 97, azetidin-1-yl(5-(3-(ethylsulfonyl)phenyl)-3,8-dimethyl-9H-pyrido[2,3-b]indol-7-yl)methanone] | > 13
24 | CCS(=O)(=O)c1cccc(-c2cc(C(=O)N3CCSC3)c(C)c3[nH]c4ncc(C)cc4c23)c1 [Compound 98, (5-(3-(ethylsulfonyl)phenyl)-3,8-dimethyl-9H-pyrido[2,3-b]indol-7-yl)(thaiazolidin-3-yl)methanone] | 5.6 to 8.5
25 | CCS(=O)(=O)c1cccc(-c2cc(C(=O)NC[C@@H](C)O)c(C)c3[nH]c4ncc(C)cc4c23)c1 [Compound 99, (R)-5-(3-(ethylsulfonyl)phenyl)-N-(2-hydroxypropyl)-3,8-dimethyl-9H-pyrido[2,3-b]indole-7-carboxamide] | 8.6 to 13
26 | CCS(=O)(=O)c1cccc(-c2cc(C(=O)NC[C@H](C)O)c(C)c3[nH]c4ncc(C)cc4c23)c1 [Compound 100, (S)-5-(3-(ethylsulfonyl)phenyl)-N-(2-hydroxypropyl)-3,8-dimethyl-9H-pyrido[2,3-b]indole-7-carboxamide] | 4 to 5.5
27 | CCS(=O)(=O)c1cccc(-c2cc(C(=O)NCCO)c(C)c3[nH]c4ncc(C)cc4c23)c1 [Compound 101, 5-(3-(ethylsulfonyl)phenyl)-N-(2-hydroxyethyl)-3,8-dimethyl-9H-pyrido[2,3-b]indole-7-carboxamide] | 4 to 5.5
28 | CCS(=O)(=O)c1cccc(-c2cc(C(=O)NCC(O)CO)c(C)c3[nH]c4ncc(C)cc4c23)c1 (stereo not shown) [Compound 102, N-(2,3-dihydroxypropyl)-5-(3-(ethylsulfonyl)phenyl)-3,8-dimethyl-9H-pyrido[2,3-b]indole-7-carboxamide] | 4 to 5.5
